Results on 15 compounds are retold here after paper PMC11597879, “In Silico and In Vitro Investigation of Cytotoxicity and Apoptosis of Acridine/Sulfonamide Hybrids Targeting Topoisomerases I and II” (Pharmaceuticals, 2024).

The target in data set [1] is T1, Topo-I (Homo sapiens, UniProt P11387).
T1 construct: purchased TopoGEN, Inc. (Columbus, OH, USA) TG1018-1A
T1 sequence (P11387 1-765): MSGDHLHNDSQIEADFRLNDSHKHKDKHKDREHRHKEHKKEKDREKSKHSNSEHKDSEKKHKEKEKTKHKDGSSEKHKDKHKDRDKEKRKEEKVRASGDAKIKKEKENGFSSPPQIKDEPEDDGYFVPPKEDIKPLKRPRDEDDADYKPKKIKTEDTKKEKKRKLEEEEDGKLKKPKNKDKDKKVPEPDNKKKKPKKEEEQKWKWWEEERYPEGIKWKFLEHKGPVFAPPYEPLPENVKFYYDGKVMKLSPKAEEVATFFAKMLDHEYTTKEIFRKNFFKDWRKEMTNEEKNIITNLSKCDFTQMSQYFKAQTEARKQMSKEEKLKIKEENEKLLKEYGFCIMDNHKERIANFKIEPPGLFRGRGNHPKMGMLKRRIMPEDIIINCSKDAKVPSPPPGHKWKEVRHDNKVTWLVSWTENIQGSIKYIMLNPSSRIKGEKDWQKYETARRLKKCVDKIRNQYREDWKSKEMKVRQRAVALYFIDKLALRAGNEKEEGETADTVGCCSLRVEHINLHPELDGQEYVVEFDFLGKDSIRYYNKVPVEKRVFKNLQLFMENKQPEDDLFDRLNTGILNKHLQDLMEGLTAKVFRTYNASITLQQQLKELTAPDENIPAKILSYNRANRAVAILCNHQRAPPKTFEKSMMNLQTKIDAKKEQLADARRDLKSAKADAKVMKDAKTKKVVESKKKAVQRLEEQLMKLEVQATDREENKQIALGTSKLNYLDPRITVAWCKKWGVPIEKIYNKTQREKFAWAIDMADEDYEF
Nature of the data set: Topoisomerase I inhibitory assay (supercoiled DNA, gel electrophoresis). Type of data set: biochemical. Conditions: supercoiled DNA substrate, 37 °C 30 min. The source says: (§1) Subsequently, these compounds were employed to evaluate their capacity to inhibit topoisomerase activity at the established IC50, using supercoiled DNA as a substrate. The resulting DNA products were separated via 1% gel electrophoresis and stained with ethidium bromide. […] To evaluate the catalytic activity of Topo-I, supercoiled DNA served as the substrate. Commercial samples of Topo I and supercoiled DNA were provided by […], TopoGEN, Inc. (Columbus, OH, USA).
To visualize the cleavage products after incubation, we used 1% agarose gel electrophoresis to separate the samples.

The target in data set [2] is T2, human Topo-II (Homo sapiens, UniProt P11388).
T2 construct: purchased TopoGEN TG1009
Description: Topoisomerase II inhibitory assay (supercoiled pHot1 DNA, gel electrophoresis). Type of data set: biochemical. Conditions: 37 °C 30 min.
Description: as §1
To assess the Topo-II activity, a typical enzyme reaction was set up using human Topo-II, supercoiled pHot1 DNA as the substrate, the test drug, and the assay buffer. […] Following that, the DNA was stained and ran on a 1% agarose gel for one to two hours using a Bio-Rad gel electrophoresis apparatus. Both supercoiled and linear DNA strands were included in the gel to serve as indicators for DNA-Topo-II intercalation.

The test system of data set [3] is HepG2 cells. The arrangement: method as in earlier work. The following applies: MTT, 48 h exposure; read-out: IC50 HepG-2; cited from earlier work.
Data set [4] deals with HCT-116 cells. The arrangement: method as in earlier work. The following applies: MTT, 48 h exposure; cited from earlier work.
Data set [5] deals with MCF-7 cells. The arrangement: method as in earlier work. The following applies: MTT, 48 h exposure; cited from earlier work.
Data set [6] concerns THLE-2 cell line. Nature of the data set: MTT cytotoxicity against normal cell line THLE-2. Conditions: normal liver epithelial cells. In kind it is cell-based, human. As to the method:
These cells were cultured in Dulbecco’s Modified Eagle’s Medium (DMEM) from Invitrogen/Life Technologies, supplemented with 10% Hyclone fetal bovine serum, […], and 1% penicillin and streptomycin. For experimental purposes, the cells were seeded in 96-well tissue culture plates at an approximate density of 5 × 10^3 cells per well and were allowed to incubate overnight. The following day, the culture medium was replaced with fresh medium containing varying concentrations of the synthesized compounds to be tested for their toxicity. After 48 h of exposure, the medium was removed, and the cells were washed twice with phosphate-buffered saline (PBS). A new medium containing MTT solution was added, and the cells were further incubated for 4 h. The cellular viability and toxicity in response to each compound were determined using ELISA microplate reader- Bioline by measuring the absorbance at a wavelength of 450 nm.

Data set [7] has as its system HepG2 cells. Description: Annexin V-FITC/PI apoptosis assay. In kind it is cell-based, human. Conditions: for apoptosis as extent of the level observed with SAHA / necrosis as extent of the level observed with SAHA: HepG2, relative to SAHA positive control; for cells in early apoptotic stage: lower right quadrant; for cells in late apoptotic stage: upper right quadrant. Here is the method: An Annexin V-FITC assay was utilized to detect apoptosis in HepG2 cells. The cells were exposed to compounds 8b (3.4 µM) and 7c (7.3 µM) for 24 h, with untreated cells and cells treated with SAHA serving as negative and positive controls, respectively. After staining with propidium iodide (PI) and Annexin V-FITC, cell apoptosis was assessed via flow cytometry.

Data set [8] has as its system HepG2 cells. Nature of the data set: Cell cycle analysis (PI, flow cytometry). The following applies: HepG2, 24 h treatment, DNA content percentage.
Description: Subsequently, the cells were harvested, fixed in 70% ethanol, and incubated for 12 h at 4 °C. After fixation, the cells were centrifuged, and the cell pellets were washed and resuspended in 0.5 mL of cold phosphate-buffered saline (PBS). The cells were then stained with 5 μg/mL of propidium iodide (PI; Sigma, Panama City, Panama), and the DNA content was determined using a BD FACSCalibur flow cytometer (Becton Dickinson, Franklin Lakes, NJ, USA). Data analysis was performed using CellQuest software, and 10,000 events were analyzed for each sample.
The mark [9] stands for this setting: HepG2, 8b 3.4 µM, 7c 7.3 µM, 24 h (Figure 2 legend: 72 h).

T2 sequence (P11388 whole entry): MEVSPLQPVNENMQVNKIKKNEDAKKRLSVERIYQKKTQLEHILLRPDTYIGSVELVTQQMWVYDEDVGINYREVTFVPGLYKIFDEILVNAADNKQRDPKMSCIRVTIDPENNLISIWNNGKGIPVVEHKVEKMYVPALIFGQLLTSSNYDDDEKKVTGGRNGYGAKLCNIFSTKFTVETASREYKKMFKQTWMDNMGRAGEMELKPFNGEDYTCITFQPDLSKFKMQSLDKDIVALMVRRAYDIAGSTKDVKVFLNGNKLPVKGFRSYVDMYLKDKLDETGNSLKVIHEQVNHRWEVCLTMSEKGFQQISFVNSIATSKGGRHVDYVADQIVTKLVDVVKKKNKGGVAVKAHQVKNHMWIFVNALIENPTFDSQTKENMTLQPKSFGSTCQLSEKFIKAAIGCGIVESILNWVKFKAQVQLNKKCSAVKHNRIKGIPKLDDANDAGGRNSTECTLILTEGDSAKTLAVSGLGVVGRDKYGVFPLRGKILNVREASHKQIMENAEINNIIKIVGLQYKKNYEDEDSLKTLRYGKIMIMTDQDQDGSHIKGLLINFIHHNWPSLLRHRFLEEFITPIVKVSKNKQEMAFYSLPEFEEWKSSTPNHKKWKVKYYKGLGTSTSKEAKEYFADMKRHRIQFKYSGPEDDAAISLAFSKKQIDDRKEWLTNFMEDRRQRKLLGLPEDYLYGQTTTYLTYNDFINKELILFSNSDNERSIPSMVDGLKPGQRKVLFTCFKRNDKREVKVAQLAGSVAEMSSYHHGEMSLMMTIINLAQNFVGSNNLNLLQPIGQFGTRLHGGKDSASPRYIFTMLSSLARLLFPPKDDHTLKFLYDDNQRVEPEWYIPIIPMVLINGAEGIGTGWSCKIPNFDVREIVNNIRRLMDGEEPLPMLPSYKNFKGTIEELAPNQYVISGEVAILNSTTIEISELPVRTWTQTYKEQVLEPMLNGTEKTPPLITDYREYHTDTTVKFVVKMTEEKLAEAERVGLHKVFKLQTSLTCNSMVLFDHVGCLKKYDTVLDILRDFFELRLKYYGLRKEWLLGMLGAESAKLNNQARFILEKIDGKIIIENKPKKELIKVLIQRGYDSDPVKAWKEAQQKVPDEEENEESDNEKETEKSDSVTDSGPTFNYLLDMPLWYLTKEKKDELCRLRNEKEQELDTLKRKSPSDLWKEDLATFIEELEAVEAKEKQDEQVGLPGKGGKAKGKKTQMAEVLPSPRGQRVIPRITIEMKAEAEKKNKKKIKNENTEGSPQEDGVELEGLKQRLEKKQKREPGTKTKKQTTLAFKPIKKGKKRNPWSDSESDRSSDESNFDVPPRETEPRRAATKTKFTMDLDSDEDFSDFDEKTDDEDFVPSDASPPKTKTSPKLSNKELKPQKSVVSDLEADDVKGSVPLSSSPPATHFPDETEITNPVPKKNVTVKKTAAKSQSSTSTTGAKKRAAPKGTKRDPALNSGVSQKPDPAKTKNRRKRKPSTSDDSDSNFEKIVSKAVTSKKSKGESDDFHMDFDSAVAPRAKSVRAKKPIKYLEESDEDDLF

Consider `CC(C)c1cc(C(C)C)c(S(=O)(=O)Nc2ccc(Nc3c4ccccc4nc4ccccc34)cc2)c(C(C)C)c1` [Compound 8d], for which the IC50 in data set [1] is 11.9 ± 0.65 µM; in data set [2], 32.7 ± 1.78 µM; in [3], 23.1 ± 2.2 µM; in data set [4], 29.9 ± 2.8 µM; in data set [5] it was 19.7 ± 1.7 µM.
For the compound `CC(C)c1cc(C(C)C)c(S(=O)(=O)Nc2ccc(Cc3ccc(Nc4c5ccccc5nc5ccccc45)cc3)cc2)c(C(C)C)c1` [Compound 7e], the 50% inhibitory concentration (IC50) was 42.2 ± 2.29 µM in [1]; 38.7 ± 2.1 µM in [2]; 55.4 ± 4.2 µM in data set [3]; 66.7 ± 4.5 µM in [4]; 50.8 ± 4 µM in data set [5].
Regarding `COc1cccc2c1C(=O)c1c(O)c3c(c(O)c1C2=O)C[C@@](O)(C(=O)CO)C[C@@H]3O[C@H]1C[C@H](N)[C@H](O)[C@H](C)O1` [Doxorubicin, reference compound], the IC50 in data set [3] was 4.5 ± 0.2 µM.
As for `O=S(=O)(Nc1ccc(Cc2ccc(Nc3c4ccccc4nc4ccccc34)cc2)cc1)c1ccc(N=Nc2ccccc2)cc1` [Compound 7d], the IC50 is 7.67 ± 0.42 µM in data set [1]; 21.6 ± 1.18 µM in [2]; 45.5 ± 3.9 µM in data set [3]; 58 ± 4.3 µM in [4]; 33.6 ± 3.3 µM in [5].
Turning to `S=C(Nc1ccccc1)Nc1ccc(Cc2ccc(Nc3c4ccccc4nc4ccccc34)cc2)cc1` [Compound 6a], the IC50 in [1] was 27.6 ± 1.5 µM; in data set [2] it was 101 ± 5.51 µM; in data set [3], 36.7 ± 3.5 µM; in data set [4] it was 47.2 ± 3.9 µM; in data set [5], 40.9 ± 3.8 µM.
For the compound `Nc1ccc(Nc2c3ccccc3nc3ccccc23)cc1` [Compound 5b], the IC50 in data set [3] is 8.3 ± 0.7 µM; in [4], 8.93 ± 0.8 µM; in data set [5], 5.88 ± 0.4 µM.
Take `Cc1ccc(S(=O)(=O)Nc2ccc(Nc3c4ccccc4nc4ccccc34)cc2)cc1` [Compound 8b]: the IC50 is 104 µM in [6] (Homo sapiens, THLE-2, 48 h); 55.5 ± 3.13 µM in [6] (48 h); 3.41 ± 0.19 µM in data set [1]; 16.2 ± 0.88 µM in [2]; 14.5 ± 1.4 µM in [3]; 9.39 ± 0.9 µM in data set [4]. Also, in data set [5], the IC50 was 8.83 ± 0.9 µM. Besides, the “apoptosis as extent of the level observed with SAHA” value in [7] came to 79%. Further, the “necrosis as extent of the level observed with SAHA” value in [7] turned out to be 46%. For the same compound, the “cells in early apoptotic stage” value in [7] (setting [9]) is on record as 3.5%. Further, in [7] (setting [9]), the “cells in late apoptotic stage” value is listed as 19.6%. Also, the “%G2/M” value in data set [8] came out at 9.66%. The “%Pre-G1” value in [8] is 26.95%. Moreover, the “%S” value in [8] was 39.15%. Further, the “G0–G1” value in data set [8] is reported as 51.19%.
Compound `Cc1ccc(S(=O)(=O)Nc2ccc(Cc3ccc(Nc4c5ccccc5nc5ccccc45)cc3)cc2)cc1` [Compound 7b] gave a melting point greater than 250 °C. In addition, the IC50 in [1] worked out at 82.5 ± 4.49 µM. The IC50 in [2] worked out at 234 ± 12.7 µM. The concentration for half-maximal inhibition (IC50) in data set [3] is 93.6 ± 5.3 µM. In addition, in data set [4], the IC50 is 88.5 ± 4.8 µM. In data set [5], the IC50 is 73.8 ± 4.5 µM.
Regarding `O=[N+]([O-])c1ccccc1S(=O)(=O)Nc1ccc(Nc2c3ccccc3nc3ccccc23)cc1` [Compound 8a], the IC50 in data set [1] was 15 ± 0.81 µM; in data set [2], 10.9 ± 0.59 µM; in [3] it was 20.6 ± 1.8 µM; in [4], 15.2 ± 1.6 µM; in data set [5], 10.5 ± 1 µM.
In turn, `O=[N+]([O-])c1ccccc1S(=O)(=O)Nc1ccc(Cc2ccc(Nc3c4ccccc4nc4ccccc34)cc2)cc1` [Compound 7a] displayed a melting point of 172 °C. Further, the half-maximal inhibitory concentration (IC50) in data set [1] was found to be 18.4 ± 1 µM. In data set [2], this compound registered an IC50 of 8.07 ± 0.44 µM. In addition, in data set [3], the IC50 is 62.3 ± 4.4 µM. Also, in [4], the IC50 is 72.2 ± 4.7 µM. Moreover, in data set [5], the half-maximal inhibitory concentration (IC50) was 88.4 ± 5.1 µM.
On to `O=C(CCCCCCC(=O)Nc1ccccc1)NO` [SAHA, reference compound], for which the IC50 in data set [6] (48 h) was 33.6 ± 1.89 µM. In data set [8], the “%G2/M” value came to 6.59%, the “%Pre-G1” value came out at 34.12%, the “%S” value came out at 46.39% and the “G0–G1” value is 47.02%.
In the case of `O=S(=O)(Nc1ccc(Nc2c3ccccc3nc3ccccc23)cc1)c1ccc(N=Nc2ccccc2)cc1` [Compound 8c], the IC50 was 21.4 ± 1.17 µM in data set [1]; 22 ± 1.2 µM in data set [2]; 22.4 ± 2 µM in data set [3]; 35.7 ± 3.4 µM in data set [4]; 25.5 ± 2.4 µM in data set [5].
With `S=C(Nc1ccccc1)Nc1ccc(Nc2c3ccccc3nc3ccccc23)cc1` [Compound 6b], the IC50 in data set [1] was 4.17 ± 0.23 µM; in [2] it was 24.5 ± 1.34 µM; in data set [3], 18 ± 1.7 µM; in data set [4], 13.1 ± 1.2 µM; in data set [5], 16.5 ± 1.5 µM.
For `N.N.[Cl][Pt][Cl]` [Cisplatin, reference compound], the IC50 in data set [1] turned out to be 5.71 ± 0.31 µM; in data set [2], 11.3 ± 0.62 µM.
As to `CC(=O)Nc1ccc(S(=O)(=O)Nc2ccc(Cc3ccc(Nc4c5ccccc5nc5ccccc45)cc3)cc2)cc1` [Compound 7c], the IC50 is 55.5 µM in data set [6] (Homo sapiens, THLE-2, 48 h); 104 ± 5.86 µM in [6] (48 h); 16.6 ± 0.9 µM in [1]; 7.33 ± 0.4 µM in [2]; 31.1 ± 3.1 µM in data set [3]; 40.6 ± 3.7 µM in [4]. In addition, the IC50 in data set [5] was 29.1 ± 2.7 µM. Also, the “apoptosis as extent of the level observed with SAHA” value in data set [7] amounted to 55%. Further, the “necrosis as extent of the level observed with SAHA” value in data set [7] was 88%. Besides, the “cells in early apoptotic stage” value in data set [7] (setting [9]) stood at 1.6%. In data set [7] (HepG2, 8b 3.4 µM, 7c 7.3 µM, 24 h (Figure 2 legend: 72 h), upper left quadrant), the “cells in necrotic stage” value was found to be 5.9%. In data set [7] (setting [9]), the “cells in late apoptotic stage” value is 12%. Further, the “%G2/M” value in data set [8] was 28.12%. For the same compound, in data set [8], the “%Pre-G1” value was determined as 19.61%. Further, in data set [8], the “%S” value came out at 29.27%. For the same compound, the “G0–G1” value in data set [8] turned out to be 42.61%.

One may read the IC50 as the concentration needed to halve the response being measured. What is called melting point is the temperature of the solid-liquid transition.
